The values below come from US10493099B2, “Compositions containing arsenic and their use in methods of treatment” (Eupharma Pty Ltd, priority 2015, dated 2019).

For data set [1] the following is noted: cited from earlier work.
Data set [2] is described as follows: Dissolution studies of arsenic salts in 100 mL water with stirring at room temperature (pH 7 and pH 1-2). The settings on record: for Dissolution Time at pH 1-2 / Final pH after dissolution / Dissolution Time at pH 7: 100 mL, stirring, room temperature. The data set is classed as physicochemical.
Data set [3] is described as follows: Dissolution of 1 mg arsenic trioxide capsule in 0.1M HCl and purified water with 0.5% BKC. It is filed as physicochemical. The settings on record: 1 mg capsule RX500950.01, 500 ml medium, 37° C., paddle 50 rpm. The procedure: To manufacture the components for insertion into the capsule all ingredients were sieved through a 500 μm sieve into a sealable jar and blended for 20 minutes in a tumble blender. The blended powder was filled into the Size 4 white hard gelatin capsules at a fill weight of 140 mg.
For the dissolution experiments the medium was 0.1M HCl and purified water with a volume of 500 ml also containing 0.5% benzalkonium chloride (BKC) at 37° C. The paddle stir speed was 50 rpm. The capsule shell disrupted within three minutes and all contents were expelled in less than five minutes. Only 5% arsenic trioxide was dissolved after 20 minutes. Even after 19 hours only 60% was dissolved. The presence of the citric acid reduced the pH of the medium from ˜8.0 to ˜7.3. Given the anticipated increase in solubility at a higher pH, these experiments were repeated at a higher pH as indicated in the tables below wherein the mean and range values represented percentage dissolution of the arsenic trioxide.

The nature of data set [4]: Dissolution of arsenic trioxide in 0.1M NaOH (pH 13). The data set is classed as physicochemical. Here is the method:
A further dissolution experiment was conducted in a solution of 0.1M NaOH (pH 13) and, as expected, more arsenic trioxide could be dissolved with a 100% level reached between 15-20 minutes as indicated in the table below.

The nature of data set [5]: Trial 1: test dissolution of arsenic trioxide solely in sodium bicarbonate solution. It is filed as physicochemical. The settings on record: 50 mg in 2540 mg sodium bicarbonate / approximately 27.2 mls water, with heating. The procedure:
2540 mg of Sodium Bicarbonate was dissolved in approximately 27.2 mls water (dissolved in less than 5 minutes). 50 mg Arsenic Trioxide was then added to this bicarbonate solution.

For data set [6] the following is noted: all three mediums: simulated gastric fluid pH 1.24, pH 4.5, pH 7.0; 150 mls, 37° C., spin bar. Here is the method:
100 mg of arsenic trioxide was dissolved in 10 mL of 0.5M NaOH with heat (<ten minutes). 250 mg Sodium Carbonate was then added (dissolves almost straight away) and excess water evaporated.
Dissolution experiments were then carried out on the AC01 at 3 different pH levels. […] Prior to addition of the capsules 150 mls of the dissolution solution was heated to 37° C. and the solution contained a spin bar at a speed of 2. The appropriate capsule was then added.

Setting [7] is: not dissolved within the time given.

`O=C([O-])O.[Na+]` [Sodium Bicarbonate]: the “pH 0.1M solution” value in data set [1] is listed as 8.3.
Regarding `O=[As][O-].[Na+]` [Sodium meta arsenite, sodium meta arsenite], the “Dissolution Time at pH 1-2” value in data set [2] was found to be 55 seconds - Final pH after. For the same molecule, the “Final pH after dissolution” value was “dissolution = 1.27” in data set [2] (dissolution at pH 1-2) and “pH after dissolution = 10.2” in data set [2] (dissolution at pH 7). For the same molecule, the “Time to dissolve at pH 1-2” value in data set [2] (pH 1-2) is “less than one”. The “Time to dissolve at pH 7” value in data set [2] (pH 7) is “less than 2 minutes”.
For Arsenic trioxide, the arsenic trioxide dissolved in data set [3] (after 20 minutes) came to 5%; in data set [3] (after 19 hours) it was 60%. In addition, the “Time at which 100% dissolution level is reached” value in data set [4] is 15 to 20 min. The “% Recovered (weight Corrected) Mean” value in data set [4] (5 minutes) worked out at 12%; in data set [4] (10 minutes) it was 65%; in data set [4] (15 minutes), 96%; in data set [4] (20 minutes), 109%; in data set [4] (25 minutes) it was 116%; in data set [4] (30 minutes), 114%. Further, the “Dissolution Time at pH 1-2” value in data set [2] (setting [7]) was “Not dissolved in 3 hours”. Further, the “Dissolution Time at pH 7” value in data set [2] (setting [7]) was “Not dissolved in 3 hours”. Also, in data set [5], the “Dissolution in sodium bicarbonate solution” value was “would not dissolve even with heating”.
For the molecule Sodium arsenic carbonate [AC01], in data set [2], the “Dissolution Time at pH 1-2” value is given as <5-10 seconds - Final pH and the “Dissolution Time at pH 7” value is on record as 40 seconds - Final pH after. Further, the “Final pH after dissolution” value in data set [2] (dissolution at pH 1-2) is “after dissolution = 1.13”. The “Final pH after dissolution” value in data set [2] (dissolution at pH 7) is given as “dissolution = pH 8.95”. In addition, in data set [6], the “Time to dissolution of powder from capsule” value is given as “less than two”.
